Measured values reported in PubChem BioAssay (NCI).
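Assay format: 96-well plates, 48-hour exposure. TGI: concentration producing complete growth inhibition.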

How the values were obtained:
Assay in all cases: NCI tumour cell line growth inhibition, 48 h
[1] = tested on: OVCAR-8 ovarian
[2] = tested on: LOX IMVI melanoma
[3] = tested on: MALME-3M melanoma
[4] = tested on: HCT-15 colon
[5] = tested on: A549 NSCLC
[6] = tested on: KM12 colon
[7] = tested on: HCT-116 colon
[8] = tested on: ACHN renal
[9] = tested on: HOP-62 NSCLC
[10] = tested on: M19-MEL melanoma
[11] = tested on: CAKI-1 renal
[12] = tested on: EKVX NSCLC
[13] = tested on: U251 CNS
[14] = tested on: SNB-78 CNS
[15] = tested on: XF 498 CNS
[16] = tested on: HOP-92 NSCLC
[17] = tested on: NCI-H460 lung
[18] = tested on: SF-539 CNS
[19] = tested on: SR leukemia
[20] = tested on: HL-60(TB) leukemia

Measured: TGI

CCOC(=O)NC(=O)c1cn(CCNCCO)c(=O)[nH]c1=O
> 100 µM: all assays above
